From patent US6362396B1, “Chimeric gene for the transformation of plants” (Aventis Crop Science, priority 1992, dated 2002) come the findings set out here.

For test [1], the system named is Spring colzas, Westar cultivar. The test can be described thus: Greenhouse glyphosate treatment of transformed spring colza. Format: in vivo. The conditions noted are these: 400 g a.s/ha. From the text:
Spring colzas, Westar cultivar, resistant to glyphosate, were obtained using the method of BOULTER et al., 1990 (Plant Science, 70: 91-99), with the constructs pRPA-BL 488 (dH-At-PTO-aroA-nos), pRPA-BL 502 (CaMV/H-At-PTO- aroA-nos).

The next test concerns tobacco PBD6 plants. In words: Measurement of the glyphosate tolerance of transformed tobacco plants sown in the open. Format: in vivo. To be noted: untransformed tobacco PBD 6 controls, 0.8 kg/ha, 5-leaf stage, 30 days after the treatment. The protocol: The vector is introduced into the nononcogenic agrobacterium strain EHA 101 (Hood et al., 1987) carrying the cosmid pTVK 291 (Komari et al., 1986). The transformation method is based on the procedure of Horsh et al. (1985).
The regeneration of the tobacco PBD6 (source SEITA France) using foliar explants is carried out on a Murashige and Skoog (MS) basic medium containing 30 g/l of sucrose and […] of kanamycin. The foliar explants are removed from greenhouse- or in vitro-grown plants and transformed according to the foliar disc method (Science 1985, Vol. 227, p. 1229-1231) in three successive stages: the first comprises the induction of shoots on an MS medium supplemented with 30 g of sucrose containing 0.05 mg of naphthylacetic acid (ANA) and 2 mg/l of benzylaminopurine (BAP), for 15 days. The shoots formed during this stage are then developed by culturing on an MS medium supplemented with 30 g/l of sucrose, but not containing hormone, for 10 days. […]
The best plants obtained from the regeneration of transformed tobaccos are selected under a greenhouse after treating the plants, at the 5-leaf stage, […] […] Molecular hybridization analysis enabled the plants having integrated only one copy of the T-DNA to be determined. […]

Each structure is given as a SMILES string.

For the compound `O=C(O)CNCP(=O)(O)O` [glyphosate, N-(phosphonomethyl)glycine], the “effect of glyphosate treatment on nontransgenic plants” value in test [1] is listed as “destroys nontransgenic plants”. The “effect of glyphosate on control (untransformed) plants (phytotoxicity)” value in the test on tobacco PBD6 plants is given as “completely destroyed”.
